Reference: patent publication US11136311B2, “Heteroaromatic derivatives as NIK inhibitors” (Janssen Pharmaceutica NV, priority 2016, dated 2021)
Where two headings read alike, the source gives them in different places.

Columns and labels:
KMS12-BM cells = test: Antiproliferative activity on KMS12-BM (NIK WT) multiple myeloma cells (CellTiter-Glo); format: cell-based, human; settings: KMS12-BM (NIK WT) cells, 96 hr, averaged values, read-out: KMS-12 Proliferation inhibition (IC50 (nM))
In short: (§1)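 Suspension myeloma cells in RPMI 1640 with 10% FCS, plated at 15000 (JJN-3) or 20000 (KMS12-BM) cells/well, were treated 96 hr with 9-point 1:3 compound dilutions at 0.3% DMSO. CellTiter-Glo luminescence, minus a time-zero blank, was expressed as % of untreated control growth.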

[1] = biological target: recombinant human NF-kappaB-inducing kinase (NIK/MAP3K14) (Homo sapiens (Human), UniProt Q99558); test: Inhibition of auto-phosphorylation of recombinant human NIK/MAP3K14 activity (AlphaScreen); format: biochemical; settings: averaged values over all measurements on all batches
In short: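 GST-tagged NIK at 0.2 nM autophosphorylated for 1 h at 25° C with 25 microM ATP in Tris pH 7.5, MgCl2, 1% DMSO. Phospho-IKK Ser176/180 antibody with AlphaScreen beads detected product. IC50 came from sigmoidal fits of blank-corrected % inhibition.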

[2] = tested on: P-IKKα levels in L363 cells; test: Effect of compounds on P-IKKα levels in L363 (NIK translocated multiple myeloma) cells; format: cell-based, human; settings: averaged values, read-out: Inhibition of pIKKα_L-363 (IC50 (nM))
In short: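 L363 myeloma cells were primed 24 h with BAFF, then treated 2 h with compound (8-point, 1:3 dilutions, 1% DMSO) at 37°C. P-IKKα in lysates was measured by Mesoscale sandwich immunoassay, with the full-inhibition blank subtracted. IC50 came from a sigmoidal fit of % inhibition of control against log concentration.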

JJN-3 cells = test: Antiproliferative activity on JJN-3 (NIK translocated) multiple myeloma cells (CellTiter-Glo); format: cell-based, human; settings: JJN-3 (NIK translocated) cells, 96 hr, averaged values, read-out: JJN-3 Proliferation inhibition (IC50 (nM))
In short: as §1

[3] = Homo sapiens, L-363, L363 cells

recombinant human NF-kappaB-inducing kinase (NIK/MAP3K14), sequence (Q99558 whole entry): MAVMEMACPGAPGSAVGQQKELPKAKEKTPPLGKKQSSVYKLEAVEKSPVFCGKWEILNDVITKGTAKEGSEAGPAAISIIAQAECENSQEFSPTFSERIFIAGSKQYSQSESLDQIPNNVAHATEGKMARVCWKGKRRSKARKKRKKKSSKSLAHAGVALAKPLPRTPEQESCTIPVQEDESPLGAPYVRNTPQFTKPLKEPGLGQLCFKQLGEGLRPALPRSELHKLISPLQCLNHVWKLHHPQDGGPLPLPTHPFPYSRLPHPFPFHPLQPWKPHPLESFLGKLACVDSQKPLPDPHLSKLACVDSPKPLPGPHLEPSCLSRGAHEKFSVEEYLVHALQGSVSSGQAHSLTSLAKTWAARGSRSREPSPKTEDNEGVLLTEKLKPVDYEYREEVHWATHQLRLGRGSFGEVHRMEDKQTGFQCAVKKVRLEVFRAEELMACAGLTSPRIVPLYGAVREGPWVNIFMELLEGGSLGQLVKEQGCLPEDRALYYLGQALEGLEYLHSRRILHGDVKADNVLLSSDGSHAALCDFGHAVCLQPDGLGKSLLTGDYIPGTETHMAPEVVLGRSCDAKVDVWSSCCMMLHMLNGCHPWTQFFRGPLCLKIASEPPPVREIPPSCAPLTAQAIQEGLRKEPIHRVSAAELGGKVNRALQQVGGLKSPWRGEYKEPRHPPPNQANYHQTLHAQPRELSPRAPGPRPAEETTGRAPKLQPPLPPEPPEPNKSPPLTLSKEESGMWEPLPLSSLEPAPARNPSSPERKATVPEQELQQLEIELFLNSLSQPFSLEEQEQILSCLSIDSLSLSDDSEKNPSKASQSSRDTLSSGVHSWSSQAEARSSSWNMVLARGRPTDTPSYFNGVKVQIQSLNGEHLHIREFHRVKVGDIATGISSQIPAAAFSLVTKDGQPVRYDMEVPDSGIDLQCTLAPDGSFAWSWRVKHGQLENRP

SMILES | IC50 (KMS12-BM cells) | IC50 [1] | IC50 ([2]; L363 cells) | IC50 (JJN-3 cells) | IC50 (KMS12-BM cells; Homo sapiens, KMS-12-BM, 96 h) | IC50 [2, 3] | IC50 (JJN-3 cells; Homo sapiens, JJN-3, 96 h)
Cc1cc(Nc2nccc(-c3cc(C#N)c4c(c3)[C@@](C)(CO)CN4)n2)nn1CC1CCCCO1 (some centres unmarked) [Compound 71] | 813 nM | 2.8 nM | 4 nM | 102 nM | – | – | –
CN1CCC(F)(Cn2nc(Cl)cc2Nc2nccc(-c3cc(C#N)c4c(c3)[C@@](C)(CO)CN4)n2)CC1 [Compound 160] | – | 3.6 nM | – | – | ~5010 nM | 34 nM | 69 nM
C[C@]1(CO)CNc2c(C#N)cc(-c3ccnc(Nc4cc(C(=O)N5CCCC5)n(C5CCCC5)n4)n3)cc21 [Compound 213] | – | 5.6 nM | – | – | > 10000 nM | 27 nM | 95 nM
C[C@]1(CO)CNc2c(C#N)cc(-c3ccnc(Nc4cnn(CCN5CCOCC5)c4Cl)n3)cc21 [Compound 208] | – | 2 nM | – | – | ~4790 nM | 4 nM | 48 nM
CN1CCN(C(=O)c2nn(CC(F)F)cc2Nc2nccc(-c3cc(C#N)c4c(c3)[C@@](C)(CO)CN4)n2)CC1 [Compound 184] | – | 5.4 nM | – | – | > 10000 nM | 17 nM | 224 nM
Cc1cc(Nc2nccc(-c3cc(C#N)c4c(c3)[C@@](C)(CO)CN4)n2)n(CC2CCN(CC(F)(F)F)CC2)n1 [Compound 137] | – | 6.3 nM | – | – | > 10000 nM | 36 nM | 676 nM
CC(C)CCc1c(Nc2nccc(-c3cc(C#N)c4c(c3)[C@@](C)(CO)CN4)n2)cnn1CCN1CCOCC1 [Compound 125] | – | 3.5 nM | – | – | > 10000 nM | 1 nM | 120 nM
CN1CCN(Cc2c(Nc3nccc(-c4cc(C#N)c5c(c4)[C@@](C)(CO)CN5)n3)cnn2CCC2CC2)CC1 [Compound 167] | – | 13 nM | – | – | > 10000 nM | 62 nM | 83 nM
COCCn1nc(CO)cc1Nc1nccc(-c2cc(C#N)c3c(c2)[C@@](C)(CO)CN3)n1 [Compound 153] | – | 4.3 nM | – | – | > 10000 nM | 28 nM | 1440 nM
Cn1cc(Nc2nccc(-c3cc(C#N)c4c(c3)[C@@](C)(CO)CN4)n2)c(OCCN2CCOCC2)n1 [Compound 203] | – | 4 nM | – | – | > 10000 nM | 25 nM | 339 nM
Cc1cc(Nc2nccc(-c3cc(C#N)c4c(c3)[C@@](C)(CO)CN4)n2)nn1CCN1CCOCC1 [Compound 182] | – | 1.7 nM | – | – | 1380 nM | 1 nM | 151 nM
C[C@]1(CO)CNc2c(C#N)cc(-c3ccnc(Nc4cc(Cl)nn4CC4CCN(CC(F)(F)F)CC4)n3)cc21 [Compound 152] | – | 17 nM | – | – | 7940 nM | 135 nM | 646 nM
CC(C)n1nc(CO)cc1Nc1nccc(-c2cc(C#N)c3c(c2)[C@@](C)(CO)CN3)n1 [Compound 156] | – | 3.6 nM | – | – | ~7240 nM | 14 nM | 1260 nM
COCCCn1cc(Nc2nccc(-c3cc(C#N)c4c(c3)[C@@](C)(CO)CN4)n2)c(CCC(C)C)n1 [Compound 105] | – | 5.5 nM | – | – | > 10000 nM | 20 nM | 447 nM
Cc1cc(Nc2nccc(-c3cc(C#N)c4c(c3)[C@@](C)(CO)CN4)n2)n(CC2CCOC2)n1 (single isomer, unassigned) [Compound 82] | 380 nM | ~5 nM | 13 nM | 182 nM | – | – | –
C[C@]1(CO)CNc2c(C#N)cc(-c3ccnc(Nc4cc(Cl)nn4C[C@H]4COCCO4)n3)cc21 [Compound 133] | – | 6.9 nM | – | – | 6610 nM | 65 nM | 389 nM

SMILES | IC50 (KMS12-BM cells) | IC50 [1] | IC50 ([2]; L363 cells) | IC50 (JJN-3 cells) | IC50 (KMS12-BM cells; Homo sapiens, KMS-12-BM, 96 h) | IC50 [2, 3] | IC50 (JJN-3 cells; Homo sapiens, JJN-3, 96 h)
CN1CC[C@@H](Cn2nc(Cl)cc2Nc2nccc(-c3cc(C#N)c4c(c3)[C@@](C)(CO)CN4)n2)C1 [Compound 161] | – | 4.3 nM | – | – | 2240 nM | 83 nM | 204 nM
CNC(=O)c1cc(Nc2nccc(-c3cc(C#N)c4c(c3)[C@@](C)(CO)CN4)n2)nn1C1CCCC1 [Compound 195] | – | 4.9 nM | – | – | > 10000 nM | 1 nM | 158 nM
Cc1nn(CC(F)F)cc1Nc1nccc(-c2cc(C#N)c3c(c2)[C@@](C)(CO)CN3)n1 [Compound 132] | – | 1 nM | – | – | ~1860 nM | 2 nM | 58 nM
COCCOc1nn(CC(F)F)cc1Nc1nccc(-c2cc(C#N)c3c(c2)[C@@](C)(CO)CN3)n1 [Compound 217] | – | 4.6 nM | – | – | ~7620 nM | 11 nM | 154 nM
CN1CCN(Cc2nn(C)cc2Nc2nccc(-c3cc(C#N)c4c(c3)[C@@](C)(CO)CN4)n2)CC1 [Compound 166] | – | 13 nM | – | – | > 10000 nM | 151 nM | 37 nM
COC[C@H](O)Cn1ncc(Nc2nccc(-c3cc(C#N)c4c(c3)[C@@](C)(CO)CN4)n2)c1OC [Compound 221] | – | 14.8 nM | – | – | > 10000 nM | ~105 nM | 2290 nM
Cn1ccc(Nc2nccc(-c3cc(C#N)c4c(c3)[C@@](C)(CN3CCN(C5CC5)CC3)CN4)n2)n1 [Compound 176] | – | 32 nM | – | – | ~3310 nM | 76 nM | 65 nM
CC(C)Cn1nc(CO)cc1Nc1nccc(-c2cc(C#N)c3c(c2)[C@@](C)(CO)CN3)n1 [Compound 151] | – | 2 nM | – | – | 7080 nM | 13 nM | 871 nM
CC(C)CCc1c(Nc2nccc(-c3cc(C#N)c4c(c3)[C@@](C)(CO)CN4)n2)cnn1CC1CCN(CC(F)(F)F)CC1 [Compound 163] | – | 12 nM | – | – | > 10000 nM | 5 nM | 309 nM
CN1CCN(Cc2nn(CC(F)F)cc2Nc2nccc(-c3cc(C#N)c4c(c3)[C@@](C)(CO)CN4)n2)CC1 [Compound 185] | – | 6 nM | – | – | > 10000 nM | 20 nM | 91 nM
CC(C)n1nc(C(=O)N2CCCC2)cc1Nc1nccc(-c2cc(C#N)c3c(c2)[C@@](C)(CO)CN3)n1 [Compound 210] | – | 6.3 nM | – | – | > 10000 nM | 71 nM | 1580 nM
CNC(=O)c1cc(Nc2nccc(-c3cc(C#N)c4c(c3)[C@@](C)(CO)CN4)n2)nn1CCC1CC1 [Compound 201] | > 10000 nM | 3.4 nM | 2 nM | 100 nM | – | – | –
CC(C)Cc1nn(C)cc1Nc1nccc(-c2cc(C#N)c3c(c2)[C@@](C)(CO)CN3)n1 [Compound 97] | – | 2 nM | – | – | > 10000 nM | 2 nM | 309 nM
C=CCn1nc(C)cc1Nc1nccc(-c2cc(C#N)c3c(c2)[C@@](C)(CO)CN3)n1 [Compound 73] | – | 1.9 nM | – | – | 1320 nM | 2 nM | 195 nM
Cc1cc(Nc2nccc(-c3cc(C#N)c4c(c3)[C@@](C)(CO)CN4)n2)n(C[C@@H]2CN(C)CCO2)n1 [Compound 139] | – | 13 nM | – | – | > 10000 nM | 182 nM | 1120 nM
Cc1cc(Nc2nccc(-c3cc(C#N)c4c(c3)[C@@](C)(CO)CN4)n2)nn1CCC(C)(C)O [Compound 109] | – | 3.6 nM | – | – | 468 nM | 11 nM | 50 nM
